{
  "source": "paper PMC3679022",
  "about": "“A Cancer Specific Cell-Penetrating Peptide, BR2, for the Efficient Delivery of an scFv into Cancer Cells” (PLoS ONE, 2013)",
  "tested_on": "HCT116 cells",
  "assay": "Detection of apoptosis by annexin V-FITC / 7-AAD flow cytometry",
  "format": "cell-based, human",
  "conditions": "proteins 2 µM, staurosporine 0.5 µM, 24 h",
  "description": "In addition, apoptotic cells were identified by staining with annexin V-FITC (150 ng/ml) and 7 amino-actinomycin D (7-AAD; BD Biosciences, San Diego, CA). 1×10^6 HCT116 cells were treated with PBS, staurosporine (0.5 µM), or peptide-fused scFvs (each, 2 µM) as described above. At the designated time, cells were washed twice with PBS (pH 7.4), harvested and resuspended in 500 µl of binding buffer supplemented with Annexin-V fluos (1∶100 diluted; BioBud, Seoul, Korea), and incubated for 15 min at 25°C in the dark. To detect necrosis, 7AAD was added prior to measurement. Samples were immediately subjected to FACS analysis with a FACSCalibur flow cytometer (FL1 and FL3) and WinMDI software (Joe Trotter, Scripps Research Institute). 1×10^4 cells per sample were analyzed by flow cytometry.\nFigure 5 The BR2-anti-Ras scFv fusion protein promotes apoptosis by blocking Ras signaling in Ras-mutated HCT116 cells. […] The numbers on the top of the quadrants indicate the percentage of apoptotic and late apoptotic/necrotic cells counted from dot plots taken from one representative experiment, performed in triplicate. […] Changes in Ras activity level in HCT116 cells treated with anti-Ras scFv and BR2- and Tat-scFv fusion proteins (each, 1 and 2 µM) were determined by an ELISA-based activity assay; results are expressed as relative Ras activity (%). […]",
  "data": [
    {"smiles": "CN[C@@H]1C[C@H]2O[C@@](C)([C@@H]1OC)n1c3ccccc3c3c4c(c5c6ccccc6n2c5c31)C(=O)NC4", "note": "[staurosporine]", "values": [
      {"measurement": "cells in the apoptotic stage (apoptotic and late apoptotic/necrotic)", "value": 61.6, "unit": "%"}
    ]}
  ]
}
